The results in this text go back to PubChem BioAssay (NCI).

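Exposure lasted 48 hours, with cells grown in 96-well plates and compounds tested at five concentrations. TGI marks complete inhibition of growth.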 Where only a bound is given, the exact number is not on record here.

Test systems include NCI-H23 lung; CCRF-CEM leukemia; SF-295 CNS; IGROV1 ovarian; RPMI-8226 leukemia; SF-539 CNS; KM12 colon; MDA-MB-231 breast; K-562 leukemia; DU-145 prostate; TK-10 renal; SF-268 CNS; SNB-19 CNS; HCT-15 colon; PC-3 prostate; HCT-116 colon; RXF 393 renal; SK-OV-3 ovarian.
Holding throughout (assay): growth of human tumour cells (NCI), 48 h

Consider `COc1cc(OC)c2c(c1)OC(c1ccccc1)CC2=O` (stereo unspecified), for which the TGI with NCI-H23 lung, with CCRF-CEM leukemia, in the assay on SF-295 CNS, with IGROV1 ovarian, in the assay with RPMI-8226 leukemia and in the assay on SF-539 CNS was above 10 µM throughout. Besides, the TGI in the assay with KM12 colon, with MDA-MB-231 breast, in the assay with K-562 leukemia, with DU-145 prostate, in the assay on TK-10 renal and in the assay with SF-268 CNS was above 10 µM throughout. The TGI in the assay on SNB-19 CNS, in the assay on HCT-15 colon, with PC-3 prostate, in the assay with HCT-116 colon, with RXF 393 renal and in the assay with SK-OV-3 ovarian was above 10 µM in each case.

In the case of `O=P12N(CCN1c1ccccc1)CCN2c1ccccc1`, the TGI in the assay with NCI-H23 lung, in the assay with CCRF-CEM leukemia, in the assay on SF-295 CNS, in the assay with IGROV1 ovarian, in the assay on RPMI-8226 leukemia and with SF-539 CNS was above 100 µM in each case. The TGI with KM12 colon, in the assay on MDA-MB-231 breast, with K-562 leukemia, in the assay with DU-145 prostate, in the assay on TK-10 renal and with SF-268 CNS was above 100 µM each time. The TGI with SNB-19 CNS, in the assay on HCT-15 colon, in the assay on PC-3 prostate, in the assay with HCT-116 colon, in the assay on RXF 393 renal and with SK-OV-3 ovarian was above 100 µM each time.

Turning to `O=c1cc(N=Nc2ccc(Br)cc2)[nH]c(=S)[nH]1`, the TGI with NCI-H23 lung was above 100 µM; in the assay with CCRF-CEM leukemia, 54.5 µM; in the assay on SF-295 CNS, above 100 µM; in the assay with IGROV1 ovarian it was above 100 µM; in the assay with RPMI-8226 leukemia, 57.9 µM; in the assay with SF-539 CNS, above 100 µM. Besides, the TGI in the assay with KM12 colon was above 100 µM; in the assay on MDA-MB-231 breast it was 34.3 µM; in the assay with K-562 leukemia, 54.4 µM; in the assay with DU-145 prostate, above 100 µM; in the assay on TK-10 renal, 32.1 µM; in the assay with SF-268 CNS it was above 100 µM. Also, the TGI with SNB-19 CNS is above 100 µM; in the assay with HCT-15 colon, 29.8 µM; with PC-3 prostate, above 100 µM; in the assay with HCT-116 colon it was 35.6 µM; with RXF 393 renal it was 45.4 µM; in the assay on SK-OV-3 ovarian, above 100 µM.

For `CC#CC(O)(C(=O)OCCCN(C)C)C1CCCCC1` (stereo unspecified), the TGI with NCI-H23 lung, in the assay on CCRF-CEM leukemia, in the assay with SF-295 CNS, in the assay on IGROV1 ovarian, in the assay with RPMI-8226 leukemia and with SF-539 CNS was above 100 µM each time. In addition, the TGI with KM12 colon, with MDA-MB-231 breast, in the assay with K-562 leukemia, in the assay on DU-145 prostate, in the assay with TK-10 renal and in the assay on SF-268 CNS was above 100 µM each time. In addition, the TGI with SNB-19 CNS, in the assay with HCT-15 colon, with PC-3 prostate, in the assay with HCT-116 colon, in the assay on RXF 393 renal and in the assay on SK-OV-3 ovarian was above 100 µM each time.

As for `O=C1NC(=O)C(F)(n2cc(F)c(=O)[nH]c2=O)C(O)N1` (stereo unspecified), the TGI in the assay with NCI-H23 lung, in the assay with CCRF-CEM leukemia, in the assay with SF-295 CNS, with IGROV1 ovarian, with RPMI-8226 leukemia and in the assay on SF-539 CNS was above 10 µM each time. For the same compound, the TGI in the assay on KM12 colon, in the assay on MDA-MB-231 breast, in the assay on K-562 leukemia, with DU-145 prostate, in the assay on TK-10 renal and with SF-268 CNS was above 10 µM throughout. Moreover, the TGI with SNB-19 CNS, in the assay on HCT-15 colon, in the assay on PC-3 prostate, in the assay with HCT-116 colon, in the assay with RXF 393 renal and in the assay with SK-OV-3 ovarian was above 10 µM in each case.

As to `CC(ON(C(c1ccccc1)C(C)C)C(C)(C)C)c1ccccc1` (stereo unspecified), the TGI with NCI-H23 lung worked out at 63.9 µM; in the assay with CCRF-CEM leukemia, 39.3 µM; in the assay with SF-295 CNS, 28.5 µM; with IGROV1 ovarian, 59.2 µM; with RPMI-8226 leukemia it was 73.7 µM; in the assay with SF-539 CNS, 43.7 µM. Also, the TGI in the assay on KM12 colon was 41.8 µM; in the assay on MDA-MB-231 breast, 39.3 µM; with K-562 leukemia, 49.8 µM; with DU-145 prostate, 32.8 µM; with TK-10 renal, 46.2 µM; with SF-268 CNS, 52.2 µM. Moreover, the TGI was 35.9 µM with SNB-19 CNS; above 100 µM in the assay on HCT-15 colon; 94 µM in the assay on PC-3 prostate; 33.9 µM with HCT-116 colon; 31.2 µM in the assay on RXF 393 renal; above 100 µM with SK-OV-3 ovarian.

Consider `COC(=O)/C=C1\C(=O)N(C(C)=O)c2ccc(Br)cc21`, for which the TGI is 32.4 µM in the assay on NCI-H23 lung; 4.84 µM in the assay on CCRF-CEM leukemia; 31.6 µM in the assay with SF-295 CNS; 20.7 µM in the assay with IGROV1 ovarian; 6.95 µM in the assay with RPMI-8226 leukemia; 9.65 µM with SF-539 CNS. Also, the TGI worked out at 28.6 µM with KM12 colon; 28.2 µM with MDA-MB-231 breast; 44.9 µM with K-562 leukemia; 25.5 µM in the assay on DU-145 prostate; 14.6 µM in the assay on TK-10 renal; 21.1 µM in the assay with SF-268 CNS. The TGI worked out at 27.9 µM in the assay on SNB-19 CNS; 21.7 µM with HCT-15 colon; 20.9 µM with PC-3 prostate; 19.8 µM in the assay with HCT-116 colon; 21.2 µM in the assay on RXF 393 renal; 29.1 µM in the assay on SK-OV-3 ovarian.
